# US12098217B2, “Fusion peptides as antimicrobial agents” (CENTRE NATIONAL DE LA RECHERCHE SCIENTIFIQUE, priority 2019, dated 2024)
# Like-named read-outs stand apart in the source and are kept apart here. Square brackets hold non-standard residues; d marks the D form. Peptide text beside a SMILES is read from it. * marks the point of attachment. 5FAM = O=C1OC2(c3ccc(O)cc3Oc3cc(O)ccc32)c2ccc(C(=O)*)cc21; Phe(3,4-Cl2) = N[C@@H](Cc1ccc(Cl)c(Cl)c1)C(=O)O; Cha = N[C@@H](CC1CCCCC1)C(=O)O
# Legend:
# [1] = system: E. coli 70S ribosome (^Ec70S); assay: ITC, peptide interaction with E. coli 70S ribosome; type: binding; details: for ΔG / ΔH / −TΔS: FITC peptides (*) values not well defined
# Procedure: E. coli MRE600 cells were grown at 37° C. in LB medium until OD^600=1. Cells were centrifuged at 4° C., and pellets were resuspended in buffer A (20 mM Tris HCl pH 7.5; 200 mM NH4Cl; 20 mM MgCl2; 0.1 mM EDTA; 6 mM β-mercaptoethanol) and lysed using a French press at 1.6 kbar. The crude lysate was centrifuged (18 200 rpm) for 30 mn at 4° C. The supernatant was further centrifuged (47000 rpm) at 4° C. for 4 hours and the pellet resuspended in 12.5 ml of buffer A. This solution was laid on a 30% sucrose cushion and centrifuged (34 000 rpm) for 19 hours at 4° C. The ribosome pellet was resuspended in 12.5 ml buffer B (20 mM Tris HCl pH 7.5; 50 mM NH4Cl; 10 mM MgCl2; 0.1 mM EDTA; 6 mM β-mercaptoethanol) and centrifuged again (18 200 rpm) for 1 hour at 4° C. The supernatant was concentrated on Centrikon 100K (Millipore) and washed extensively with ITC 70S buffer. Ribosome concentration was determined by UV absorption at 260 nm. Samples were snap frozen in liquid nitrogen and kept at −80° C.
# (§1) ITC experiments were performed on a iTC200 (Microcal Malvern Panalytical) or PEAQ-ITC instrument (Microcal Malvern Panalytical). The E. coli SC were washed extensively with ITC buffer (R1 buffer: 10 mM Hepes pH 7.4, 0.15 M NaCl, 3 mM EDTA) on Centrikon 10K at 4° C. before ITC experiments. […] Similarly, E. coli 70S ribosome particles were also washed extensively with ITC 70S buffer (50 mM Tris HCl pH7.5, 30 mM KCl, 70 mM NH4Cl, 7 mM MgCl2, 1 mM DTT, 5% glycerol) on Centrikon 100K at 4° C. before ITC experiments. Peptides (100 to 400 μM) were titrated at 30° C. (303.15 K) in sequential injections (usually 2 μl each) into a SC (20 or 30 μM) or 70S (10 to 15 μM) solution. Data were corrected from control experiments in which peptides were injected in ITC buffer solution. Each titration was performed at least twice. Analyses of experimental data were performed with AFFINImeter software (https://www.affinimeter.com; S4S, Santiago de Compostela, Spain).
# The lack of interaction with the ribosome of E. coli has been measured by ITC at 30° C.:
# The interactions of these peptides with the E. coli SC (beta ring) and the ribosome were measured by ITC at […]: […]
# [2] = system: E. coli D22 strain; assay: microbe, parasite or virus in culture; type: cell-based
# Text: E. coli strain D22 (F-, IpxC101, proA23, lac-28, tsx-81, trp-30, his-51, tufA1, rpsL173(strR), ampCp-1 was purchased at E. coli Genetic Stock Center (Yale University) and used in the determination of MIC and in the peptide penetration assays. E. coli ATCC23724 cells were used to infect D. melanogaster flies. 70S ribosomes were purified from the E. coli MRE600 strain (Accession AY140951) and BL21 (DE3) pLys strain was used for production of the DnaN protein.
# (§2) E. coli strains were cultivated on either agar or liquid 1× Mueller Hinton broth unless specified. MIC assays were performed in duplicate in 96-well microtiter plates on the basis of the protocol recommended by the Clinical and Laboratory Standards Institute. Briefly, a mix of 5-6 fresh (less than 36 hours) colonies grown on MH agar plates were inoculated in 3 ml of MH broth and incubated for about 16 h at 37° C. under agitation. 30 μl of this saturated culture were inoculated in 3 ml of fresh medium and allowed to grow until OD600 nm of about 0.6-0.8. Dilution to an OD600 nm of 0.002 was made in MH broth. Within a time laps not exceeding 30 min, 50 μl of this cell suspension was added to 50 μl of MH broth (containing or not the peptide/antibiotic diluted in MH broth) in wells of a 96-well round bottom microwell plate (Greiner; final cell density about 2 to 5×10^5 cfu/ml). Plates were incubated at 37° C. for 18-24 h and final turbidity of each well was measured at 620 nm using a Multiskan FC microplate reader (Thermo Scientific). MIC was defined as the minimal antibiotic concentration that result in no increase of turbidity at that time. Each MIC determination was performed in duplicate and at least in two independent experiments. Plating of 75 μl of the content of the wells of interest on LB Agar plates was used to determine the MBC that is defined by a decrease of at least 99.9% of cell viability as compared to the number of viable cells in the inoculum (about 2 to 5×10^4 cfu).
# [3] = target: T1, E. coli SC (^EcSC, beta ring, DnaN) (Escherichia coli, UniProt P0A988); assay: ITC, peptide interaction with E. coli sliding clamp; type: binding
# T1 construct: inferred from the pET15b vector and the Ni-NTA/imidazole purification; made in house; host or cells: E. coli BL21 (DE3) pLys
# Procedure: The DnaN protein was expressed from plasmids pET15b, containing the dnaN gene from E. coli, transfected in BL21 (DE3) pLys E. coli strain. Cells were grown in LB at 37° C. to OD 0.5, then induced by IPTG (0.1 mM) at 28° C. overnight. DnaN protein was first enriched on a Ni-NTA column, eluted with an imidazole step (300 mM) and further purified on a Source Q column in buffer containing 20 mM Tris HCl pH 7.5, 0.5 mM EDTA and 10% glycerol, using a gradient from 0 to 0.5 M NaCl. After a final ultracentrifugation (45K, 1 h, 20° C.), soluble proteins were concentrated on a Centricon 30K (Millipore) in the same buffer and stored at 4° C. in 2 M ammonium sulfate.
# as §1, with “[…] […]” for “Peptides (100 to 400 μM) were titrated at 30° C. (303.15 K) in sequential injections (usually 2 μl each) into a SC (20 or 30 μM) or 70S (10 to 15 μM) solution.”
# [4] = system: E. coli ATCC 25922 (DSM 1103) strain; type: cell-based; details: ATCC 25922, 36 h
# Procedure: as §2
# The antimicrobial activities of these peptides have been tested against the E. coli ATCC 25922 (DSM 1103) strain in 1× Mueller-Hinton broth as mentioned above.
# The antimicrobial activities of these peptides and controls have been tested against the E. coli ATCC 25922 (DSM 1103) strain in 1× Mueller-Hinton broth.
# [5] = ITC 30° C., Table 2B, ^Ec70S, Ni = no specific interaction
# [6] = ITC 30° C. (303.15 K), Table 2A, ^EcSC, Ni = no specific interaction
# [7] = ITC 30° C., Table 2A, ^EcSC, Ni = no specific interaction
# [8] = E. coli D22, Mueller Hinton broth, range of at least 2 independent experiments
# T1 sequence (P0A988 whole entry): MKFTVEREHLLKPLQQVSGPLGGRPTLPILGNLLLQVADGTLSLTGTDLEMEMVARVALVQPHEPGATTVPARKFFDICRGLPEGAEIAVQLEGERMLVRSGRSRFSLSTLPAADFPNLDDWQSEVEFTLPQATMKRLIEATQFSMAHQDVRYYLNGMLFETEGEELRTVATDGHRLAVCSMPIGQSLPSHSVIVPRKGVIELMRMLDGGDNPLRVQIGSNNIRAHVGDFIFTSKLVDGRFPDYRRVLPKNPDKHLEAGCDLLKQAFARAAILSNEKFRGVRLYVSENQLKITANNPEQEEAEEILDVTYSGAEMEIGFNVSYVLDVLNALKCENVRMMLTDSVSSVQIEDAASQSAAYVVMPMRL
smiles,measurement,setting,value
CC[C@H](C)[C@H](NC(=O)[C@@H]1CCCN1C(=O)[C@H](CCCNC(=N)N)NC(=O)[C@@H]1CCCN1C(=O)[C@@H]1CCCN1C(=O)[C@@H](NC(=O)[C@@H]1CCCN1C(=O)[C@H](CCCNC(=N)N)NC(=O)[C@@H]1CCCN1C(=O)[C@H](CC(C)C)NC(=O)[C@H](Cc1ccc(O)cc1)NC(=O)[C@H](CO)NC(=O)CNC(=O)[C@H](CCCCN)NC(=O)[C@H](CC(=O)O)NC(=O)[C@@H](N)C(C)C)[C@@H](C)O)C(=O)N[C@@H](Cc1ccc(O)cc1)C(=O)N[C@@H](CC(N)=O)C(=O)N[C@@H](CCCNC(=N)N)C(=O)N[C@@H](CC(N)=O)C(=O)NCC(=O)N1CCC[C@H]1C(=O)N[C@@H](CCCNC(=N)N)C(=O)N[C@@H](CC1CCCCC1)C(=O)N[C@@H](Cc1ccccc1)C(=O)N[C@@H](CCC(N)=O)C(=O)N[C@@H](CC(C)C)C(=O)N[C@@H](CC(=O)O)C(=O)O [Peptide P188],Kd,[1]; [5],75.8 nM
same,ΔG,[1]; [5],-9.89 kcal/mol
same,ΔH,[1]; [5],-15.4 kcal/mol
same,−TΔS,[1]; [5],5.5 kcal/mol
same,MIC (μM),[2]; D22 strain,1.2 to 2.4 µM
same,MIC (μg/ml),[2]; D22 strain,4 to 8 µg/mL
same,"interaction with ^EcSC, in words",[3]; ITC 30° C.,fail to interact
same,ΔH (kcal/mole),[3]; [6],Ni
same,Kd (nM),[3]; [7],Ni
same,ΔG (kcal/mole),[3]; [7],Ni
same,−TΔS (kcal/mole),[3]; [7],Ni
CC[C@H](C)[C@H](NC(=O)[C@@H]1CCCN1C(=O)[C@H](CCCNC(=N)N)NC(=O)[C@@H]1CCCN1C(=O)[C@@H]1CCCN1C(=O)[C@@H](NC(=O)[C@@H]1CCCN1C(=O)[C@H](CCCNC(=N)N)NC(=O)[C@@H]1CCCN1C(=O)[C@H](CC(C)C)NC(=O)[C@H](Cc1ccc(O)cc1)NC(=O)[C@H](CO)NC(=O)CNC(=O)[C@H](CCCCN)NC(=O)[C@H](CC(=O)O)NC(=O)[C@@H](N)C(C)C)[C@@H](C)O)C(=O)N[C@@H](Cc1ccc(O)cc1)C(=O)N[C@@H](CC(N)=O)C(=O)N[C@@H](CCCNC(=N)N)C(=O)N[C@@H](CC(N)=O)C(=O)NCC(=O)N1CCC[C@H]1C(=O)N[C@@H](CCCNC(=N)N)C(=O)N[C@@H](CCC(N)=O)C(=O)N[C@@H](CC1CCCCC1)C(=O)N[C@@H](CC(=O)O)C(=O)N[C@@H](CC(C)C)C(=O)N[C@@H](Cc1ccccc1)C(=O)O [Peptide P116] (H-VDKGSYLPRPTPPRPIYNRNGPRQ[Cha]DLF-OH),"interaction with ^Ec70S, in words",[1]; ITC 30° C.,efficiently interact
same,Kd,[1]; [5],37 nM
same,ΔG,[1]; [5],-10.3 kcal/mol
same,ΔH,[1]; [5],-22.3 kcal/mol
same,−TΔS,[1]; [5],12 kcal/mol
same,affinity for the ribosome relative to affinity for SC,"[1]; from Table 2, ^Ec70S versus ^EcSC",three times higher affinity
same,MBC,[2]; D22 strain,8 µg/mL
same,MIC (μM),[2]; D22 strain,1.2 to 2.4 µM
same,MIC (μg/ml),[2]; D22 strain,4 to 8 µg/mL
same,"antibacterial activity, in words","[2]; E. coli D22, microdilution broth assay",no increase in the activity
same,"interaction with ^EcSC, in words",[3]; ITC 30° C.,as efficiently as P7 alone
same,ΔH,[3]; [6],-13.9 kcal/mol
same,ΔG,[3]; [7],-9.61 kcal/mol
same,−TΔS,[3]; [7],4.3 kcal/mol
"CC[C@H](C)[C@H](NC(=O)[C@@H](CCCNC(=N)N)NC(=O)[C@H](CCCNC(=N)N)NC(=O)[C@@H]1CCCN1C(=O)[C@@H]1CCCN1C(=O)[C@H](CCCNC(=N)N)NC(=O)[C@@H]1CCCN1C(=O)[C@H](CCCNC(=N)N)NC(=O)[C@@H]1CCCN1C(=O)[C@H](CC(C)C)NC(=O)[C@H](Cc1ccc(O)cc1)NC(=O)[C@@H]1CCCN1C(=O)[C@@H]1CCCN1C(=O)[C@H](CCCCN)NC(=O)[C@H](CC(=O)O)NC(=O)[C@@H](NC(=O)[C@H](CCCCN)NC(=O)c1ccc2c(c1)C(=O)OC21c2ccc(O)cc2Oc2cc(O)ccc21)C(C)C)C(=O)N[C@@H](Cc1ccc(O)cc1)C(=O)N[C@@H](CC(N)=O)C(=O)N[C@H](CCCNC(=N)N)C(=O)NCC(=O)N1CCC[C@H]1C(=O)N[C@@H](CCCNC(=N)N)C(=O)N[C@@H](CCC(N)=O)C(=O)N[C@@H](CC1CCCCC1)C(=O)N[C@@H](CC(=O)O)C(=O)N[C@@H](CC(C)C)C(=O)N[C@@H](Cc1ccc(Cl)c(Cl)c1)C(=O)O [CM1-94] (5FAM-KVDKPPYLPRPRPPR[dR]IYN[dR]GPRQ[Cha]DL[Phe(3,4-Cl2)]-OH; N-terminus assumed)",MIC,[4],4 to 8 µM
same,Kd,"[1]; ITC, 30° C., E. coli ribosome, FITC-Onc112 series",> 10000 nM
"CN(C)[C@@H]1C(=O)C(C(N)=O)=C(O)[C@@]2(O)C(=O)C3=C(O)c4c(O)cccc4[C@@](C)(O)[C@H]3C[C@@H]12 [Tetracyclin, reference compound]",MIC (μM),[2]; [8],0.56 to 1.12 µM
same,MIC (μg/ml),[2]; [8],0.25 to 0.5 µg/mL
same,MBC,"[2]; E. coli D22, decrease of at least 99.9% of cell viability",0.5 µg/mL
"CC1(C)S[C@@H]2[C@H](NC(=O)[C@H](N)c3ccccc3)C(=O)N2[C@H]1C(=O)O [Ampicillin, reference compound]",MIC,"[2]; Escherichia coli, D22STRAIN, E. coli D22, Mueller Hinton broth, range of at least 2 independent experiments, read-out: MIC",22.9 to 45.8 µM
same,MIC,"[2]; Escherichia coli, D22STRAIN, E. coli D22, Mueller Hinton broth, range of at least 2 independent experiments, read-out: MIC (μg/ml)",8 to 16 µg/mL
same,MBC,"[2]; Escherichia coli, D22STRAIN, E. coli D22, decrease of at least 99.9% of cell viability, read-out: MBC",16 µg/mL
